# Laboratory results taken from the supplement of paper PMC5752671.
# Where a name gives a salt, the structure may show the parent alone.
# Columns and labels:
# Assay in all cases: area under dose-response curve (cell viability) (AUC (arbitrary, % viability x log concentration)); higher = less sensitive (more viable)
# Settings in all cases: 4 days
# [1] = test system: MOLM/16
# Procedure, shortened: (§1)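 Fourteen leukemia cell lines were plated on extracellular-matrix-coated 384-well plates. Drugs were added robotically the next day at eight concentrations spanning 4–5 logs within 10^–12–10^–4 M, tailored per drug, in duplicate. Viability was read with CellTiter-Glo after 4 days. The value is the area under a four-parameter sigmoid fitted to the duplicate-averaged dose-response.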
# [2] = test system: KG1
# Procedure, shortened: as §1
# [3] = test system: OCI-AML3
# Procedure, shortened: as §1
# [4] = test system: MV4.11
# Procedure, shortened: as §1
# [5] = test system: MOLM/13
# Procedure, shortened: as §1
# [6] = test system: HL60
# Procedure, shortened: as §1
# [7] = test system: THP-1
# Procedure, shortened: as §1
# [8] = test system: U937
# Procedure, shortened: as §1
# [9] = test system: KASUMI1
# Procedure, shortened: as §1
# [10] = test system: SKM1
# Procedure, shortened: as §1
Structure (SMILES),area under dose-response curve [1],area under dose-response curve [2],area under dose-response curve [3],area under dose-response curve [4],area under dose-response curve [5],area under dose-response curve [6],area under dose-response curve [7],area under dose-response curve [8],area under dose-response curve [9],area under dose-response curve [10]
Nc1nc(Cl)nc2c1ncn2[C@@H]1O[C@H](CO)[C@@H](O)[C@@H]1F [Clofarabine],462,575,459,518,481,571,562,356,574,473
CCNC(=O)c1noc(-c2cc(C(C)C)c(O)cc2O)c1-c1ccc(CN2CCOCC2)cc1 [NVP-AUY-922],147,331,262,144,313,299,359,222,213,208
Cc1ccc(C(=O)Nc2ccc(CN3CCN(C)CC3)c(C(F)(F)F)c2)cc1C#Cc1cnc2cccnn12,462,363,539,224,266,593,583,527,433,574
COc1cc([C@@H]2c3cc4c(cc3[C@@H](O[C@@H]3O[C@@H]5CO[C@@H](C)O[C@H]5[C@H](O)[C@H]3O)[C@H]3COC(=O)[C@H]23)OCO4)cc(OC)c1O [Etoposide],467,568,466,283,328,490,540,350,470,374
Nc1ccccc1NC(=O)c1ccc(CNC(=O)OCc2cccnc2)cc1 [MS-275],405,592,436,436,459,490,558,449,466,390
C[C@@H](Oc1cc(-c2cnn(C3CCNCC3)c2)cnc1N)c1c(Cl)ccc(F)c1Cl [Crizotinib],522,674,616,591,562,696,700,602,639,623
CC(C)(C)c1cc(NC(=O)Nc2ccc(-c3cn4c(n3)sc3cc(OCCN5CCOCC5)ccc34)cc2)no1 [AC-220],604,650,536,154,200,550,566,530,408,629
CC(=O)Nc1cccc(-n2c(=O)n(C3CC3)c(=O)c3c(Nc4ccc(I)cc4F)n(C)c(=O)c(C)c32)c1,450,431,218,468,571,287,497,578,371,253
CC1=C(/C=C/C(C)=C/C=C/C(C)=C/C(=O)Nc2ccc(O)cc2)C(C)(C)CCC1 [Fenretinide],535,618,570,545,618,691,653,569,691,581
CCN(CC)CCCC(C)Nc1c2ccc(Cl)cc2nc2ccc(OC)cc12 (stereo not given) [Acrichine],625,641,611,615,598,673,661,636,639,617
COc1cc2nccc(Oc3ccc(NC(=O)NC4CC4)c(Cl)c3)c2cc1C(N)=O [E7080],629,334,682,558,531,727,713,675,515,707
CN(Cc1cnc2nc(N)nc(N)c2n1)c1ccc(C(=O)N[C@@H](CCC(=O)O)C(=O)O)cc1 [Methotrexate],573,762,189,49.4,28.8,751,366,448,708,597
Cc1nc(Nc2ncc(C(=O)Nc3c(C)cccc3Cl)s2)cc(N2CCN(CCO)CC2)n1 [Dasatinib],571,687,695,613,519,761,734,590,469,575
Cc1cn(-c2cc(NC(=O)c3ccc(C)c(Nc4nccc(-c5cccnc5)n4)c3)cc(C(F)(F)F)c2)cn1 [Nilotinib],599,624,625,601,604,632,605,604,458,627
CS(=O)(=O)N1CCN(Cc2cc3nc(-c4cccc5[nH]ncc45)nc(N4CCOCC4)c3s2)CC1 [GDC-0941],363,591,521,495,560,465,546,472,402,469
C[C@@]1(C(=O)Nc2ccc(F)nc2)CCCN1c1nc(Nc2cc(C3CC3)n[nH]2)c2cccn2n1,404,510,587,570,565,373,591,552,405,464

Structure (SMILES),area under dose-response curve [1],area under dose-response curve [2],area under dose-response curve [3],area under dose-response curve [4],area under dose-response curve [5],area under dose-response curve [6],area under dose-response curve [7],area under dose-response curve [8],area under dose-response curve [9],area under dose-response curve [10]
CSCC[C@H](NC(=O)c1ccc(NC[C@@H](N)CS)cc1-c1ccccc1)C(=O)O [FTI-276],611,768,660,641,641,753,765,658,722,668
FC(F)(F)c1ccc(/C=C/c2nc(COc3ccc(CCCCn4ccnn4)cc3)co2)cc1 [Mubritinib],402,561,529,560,604,611,514,431,534,588
CN(C)CCCn1cc(C2=C(c3c[nH]c4ccccc34)C(=O)NC2=O)c2ccccc21,543,608,663,500,534,710,701,694,647,601
CC[C@H](Nc1ncnc2[nH]cnc12)c1nc2cccc(F)c2c(=O)n1-c1ccccc1 [CAL-101],615,653,616,577,662,644,632,597,552,603
c1cc(-c2sc(-c3ccncc3)c(-c3ccncc3)c2-c2ccncc2)ccn1 [GANT58],611,691,645,671,643,733,735,630,704,650
CN1CC[C@H](c2c(O)cc(O)c3c(=O)cc(-c4ccccc4Cl)oc23)[C@H](O)C1 [Flavopiridol],369,300,420,408,436,474,442,388,476,286
Nc1cc(C(F)(F)F)c(-c2cc(N3CCOCC3)nc(N3CCOCC3)n2)cn1 [BKM-120],473,566,538,599,576,613,602,510,602,539
Nc1ccn([C@@H]2O[C@H](CO)[C@@H](O)[C@@H]2O)c(=O)n1 [Cytarabine HCl],395,386,417,378,296,410,452,154,383,413
NC(=O)c1ccc2nc(-c3ccc(Oc4ccc(Cl)cc4)cc3)[nH]c2c1 [BML 277],628,683,692,715,682,739,714,655,735,672
C[C@@H]1C[C@H]2[C@@H]3CCC4=CC(=O)C=C[C@]4(C)[C@@]3(F)[C@@H](O)C[C@]2(C)[C@@]1(O)C(=O)CO [dexamethasone],715,689,710,767,657,806,795,576,538,615
Cc1ccc(NC(=O)c2ccc(CN3CCN(C)CC3)cc2)cc1Nc1nc(-c2cccnc2)cs1 [Masitinib],623,693,666,596,693,669,659,648,555,639
N[C@@H](Cc1ccc(N(CCCl)CCCl)cc1)C(=O)O [Melphalan],542,644,527,423,537,621,628,540,610,561
C[C@]1(c2nc3c(C(N)=O)cccc3[nH]2)CCCN1 [ABT-888],616,684,629,654,638,668,690,674,663,629
Nc1cccc2c1CN(C1CCC(=O)NC1=O)C2=O (stereo not given) [Lenalidomide],514,754,657,671,599,745,719,641,739,613
Nc1nc(F)nc2c1ncn2[C@@H]1O[C@H](CO)[C@@H](O)[C@@H]1O [Fludarabine],625,714,632,594,646,643,676,592,655,624
NC(=O)NO [Hydroxyurea],617,675,612,602,602,645,675,630,672,624
